# Key:
# Type in all cases: physicochemical
# [1] = Encapsulation efficacy of siRNA in crosslinked HSA NSs (Trypsin digestion, RP-HPLC); details: 200 μg siRNA
# Protocol: For encapsulation of siRNA inside crosslinked HSA NSs, siRNA was added to HSA solution prior the addition of desolvating phase. The rest of procedure was made exactly in the same manner detailed above, when instead of using DDW, RNAse free water (RNFW) was used. After crosslinking, the NSs were washed and the total ultrafiltrate was collected, lyophilized and reconstituted with 500 μl RNFW, from which, 160 ul were injected to HPLC. Since partial degradation of free siRNA in the ultrafiltrate was observed, the preferred way to determine siRNA content in the NSs is to directly determine siRNA content in the particle (after its digestion), and not based on the free siRNA (un-encapsulated) in the ultrafiltrate.
# The total weight of HSA per 100 μl of suspension (after wash) was quantified gravimetrically. Then 1-2 mg of washed HSA NPs encapsulating siRNA was diluted to 1 ml with RNase free PBS buffer (adjusted to pH=7.5 using 0.5 M NaOH solution) and digested with 20 to 150 μg Trypsin for 60, 90 or 180 min, at dark and under mild shaking at 37° C., till a clear solution was formed. In case sample containing DOTAP, Heparin (90 μg) was added to the aqueous phase, 0 or 60 min after the addition of Trypsin. The free siRNA quantity was determined using RP-HPLC, in the presence of Trypsin or without it.
# In order to determine the encapsulation efficacy of siRNA in the crosslinked HSA NSs, the washed NSs were digested with Trypsin till a clear solution was formed and the total siRNA content was detected using RP-HPLC and calculated based on AUC. According to the protocol we have developed in our lab (for detailing see section E), the reliability of such method in quantification the released siRNA, is highly efficient (FIGS. 5-6). A few trends can be concluded; In the presence of DOTAP, the best encapsulation (˜40%) accepted at the low basic pH (pH 8 and 7). At pH 9, removal of the DOTAP from NSs, have reduced encapsulation efficacies. This effect is more pronounced when the non cholesterol modified siRNA (GFP-siRNA) is used.
# [2] = Melting point measurements for siRNAs (UV 260 nm); details: buffer 48 mM Tris, 96 mM NaCl, pH 7.1
# Protocol: Melting point measurements for different siRNAs (21-mer) used were performed on a UV-visible spectrophotometer (Cary 300) at 260 nm, by elevating the sample temperature from 20° C. to 85° C. at rate of 1° C./min. All siRNAs were dissolved in buffer (48 mM Tris, 96 mM NaCl, pH 7.1) to obtain a concentration of 4-10 ng/μl.
# The temperature at which the 50% of siRNA strands are denatured is called the melting temperature, or Tm. The Tm for various siRNAs (21 mers) used in our research, was measured and found to be: 78, 77 and 72° C. for GFP-siRNA, Chol-GFP-siRNA and EGFR-siRNA, respectively. With all examined siRNAs, beginning of separation was already observed at 60° C. (data not shown).
# [3] = Integrity evaluation of free siRNA exposed to pH 7, 8, 9 with or without glutaraldehyde (HPLC, PAGE 8%); details: for integrity of free siRNA in the presence of the cross linker (glutaraldehyde): 3 hr, all the pH tested (7, 8, 9), 'heavy' specie runs slower at the gel
# Protocol: FIGS. 16A-16B are gel retardation assays (PAGE 8%) for evaluation of free siRNA integrity after exposure to different conditions. Integrity evaluation was made for GFP-siRNA (FIG. 16A) and Chol-GFP-siRNA (FIG. 16B). Lane No. 1—ladder, Lane No. 2, 3—controls with 100 and 50 ng of untreated siRNA respectively. Lanes 4, 6 and 8, with siRNA exposed to pH 7, 8 and 9, respectively. Lanes 5, 7 and 9, with siRNA exposed to pH 7, 8 and 9 in the presence of glutaraldehyde (0.014% (v/v)), respectively.
# (§1) For siRNA integrity (stability) evaluation 8% (19:1) native polyacrylamide gels (PAGE) was used. Electrophoresis was carried out at 200V for 50 min, in Tris-Borate-EDTE (TBE) as running buffer. For siRNA staining, 0.01% of EtBr was used. Gels were visualized under a UV transilluminator.
# During the primal encapsulation process of siRNA in the HSA NSs it has been exposed to materials with distractive potential such as basic pH conditions and the presence of cross linker (glutaraldehyde) who can interact with the primal amine present in the nucleic bases: Guanine, Adenine or Cytosine. Hens, the need in siRNA integrity evaluation arise. First, integrity evaluation of the free siRNA (GFP-siRNA and Chol-GFP-siRNA) was made. The siRNAs were exposed to the same conditions used for production of crosslinked HSA NSs (3 hr at aqueous solutions with pH of 7, 8 or 9 with or without the presence of glutaraldehyde), then a fraction from each sample was analyzed using HPLC (data not shown) and gel retardation assay (PAGE 8%) (FIG. 16).
# [4] = Integrity evaluation of siRNA extracted from crosslinked HSA NSs and from NCs (HPLC, PAGE 8%); details: compared with untreated siRNA
# Protocol: FIGS. 17A-17B are gel retardation assays (PAGE 8%) for evaluation of extracted siRNA. Integrity evaluation was made for GFP-siRNA (FIG. 17A) and Chol-GFP-siRNA (FIG. 17B). Lane No. 1—ladder, Lane No. 2—control with 100 ng of untreated siRNA. Lanes 3-8 with siRNA extracted from primal crosslinked HSA NSs (produced in different pH conditions), Lanes 9 and 10, with siRNA extracted from NCs loaded with the primal crosslinked HSA.
# as §1
# Later, siRNAs were extracted from the primal crosslinked HSA NSs (produced in different pH conditions), and their integrity was assessed using HPLC (data not shown) and gel retardation assay (PAGE 8%) (FIG. 17). Furthermore, the stability of siRNAs extracted from NCs loaded with the primal crosslinked HSA was also examined ([…]—lanes No. 9 & 10), since secondary encapsulation process performed under heat (Tin is 50° C.), using the nano spray drying technique. […] Based on the HPLC results, the exact amount of encapsulated siRNA was determined. […]
Substance,"% encapsulation ([1]; pH 7, with 0.03 mg DOTAP) [%]","Encapsulated is RNA ([1]; pH 7, with 0.03 mg DOTAP) [µg]","% encapsulation ([1]; pH 8, with 0.03 mg DOTAP) [%]","Encapsulated is RNA ([1]; pH 8, with 0.03 mg DOTAP) [µg]","% encapsulation ([1]; pH 9, with 0.03 mg DOTAP) [%]","Encapsulated is RNA ([1]; pH 9, with 0.03 mg DOTAP) [µg]","% encapsulation ([1]; pH 9, without DOTAP) [%]","Encapsulated is RNA ([1]; pH 9, without DOTAP) [µg]","melting temperature, or Tm (50% of siRNA strands denatured) [2] [°C]","integrity of free siRNA at basic pH ([3]; 3 hr in aqueous solutions of pH 7, 8 or 9, without glutaraldehyde)",integrity of free siRNA in the presence of the cross linker (glutaraldehyde) [3],integrity of siRNA encapsulated in the primal HSA NSs or secondary NCs [4]
"Chol-GFP-siRNA: Cholesterol modified GFP-siRNA, 21 bp, MW 15,079 Da, SEQ ID NO: 7 and 8, provided by Roche (chain 1 AUAUCAUGGCCGACAAGCATT; chain 2 UGCUUGUCGGCCAUGAUAUTT; 5' cholesteryl, chemistry not fully specified)",39,76,40,80,26,52,16,32,77,improved resistant to basic pH (8 and 9) compared to GFP-siRNA,highly sensitive,stayed intact
"EGFR-siRNA: Anti Epidermal Growth Factor Receptor siRNA, 21 bp, MW 13,400 Da, SEQ ID NO: 1 and 2, purchased from Ambion (chain 1 CCAUAAAUGCUACGAAUAUTT; chain 2 AUAUUCGUAGCAUUUAUGGAG; a few LNA modifications, positions not given here, lowercase DNA)",–,–,–,–,–,–,–,–,72,–,–,–
"GFP-siRNA: Anti Green Fluorescent Protein siRNA, 21 bp, MW 14,352 Da, SEQ ID NO: 5 and 6, provided by Roche (chain 1 AUAUCAUGGCCGACAAGCATT; chain 2 UGCUUGUCGGCCAUGAUAUTT; chemistry not fully specified)",43,86,42,84,24,48,9,18,78,–,highly sensitive,stayed intact

# Source: patent US9421173B2, “Nano delivery systems for siRNA” (YISSUM RESEARCH DEVELOPMENT COMPANY OF THE HEBREW …, priority 2011, dated 2016)
